Test results published in patent publication US10870635B2, “Compounds and their use as BACE1 inhibitors” (ALLGENESIS BIOTHERAPEUTICS, INC., priority 2015, dated 2020).

Tested on: Aβ38, Aβ40 and Aβ42 in CSF
Assay: Efficacy study in monkeys: Aβ biomarkers in CSF after single oral administration
Assay type: in vivo, cynomolgus monkeys
Conditions: Monkey CSF
Text: Certain isoforms of amyloid β peptide (AR), such as Aβ338, Aβ340 and Aβ342 have been established as relevant biomarkers that reflect BACE1 activity and have been exploited to establish translational relationships between different cellular assays and animal models. In this efficacy study, mammals were used to assess amyloid β reduction with BACE1 inhibitors. In a clinical setting, plasma and cerebrospinal fluid (CSF) are the accessible compartments to measure soluble amyloid β levels to determine target profile. It is important to analyze plasma and CSF levels which relate to changes in brain amyloid β levels. The concentration of BACE1 inhibitors and their time-dependent reduction of plasma, CSF and brain amyloid β levels were investigated following intravenous and oral administrations of BACE1 inhibitors.
a (ii). Formulation for PO administration: 5% (v/v) PEG400+95% (v/v) of 1% (w/v) methyl cellulose in water (the viscosity of methyl cellulose is 20 g/L, 20° C., cPa·s: 350.0-550.0). The test article solutions were prepared by dissolving the compound in PEG400 followed by the addition of the aqueous solution to the final volume.
For the oral formulation of a BACE1 inhibitor in the monkey efficacy study (at the dose of 20 mg/kg with the concentration of 2 mg/ml)
1) Weighed […] of the selected BACE1 inhibitors into a clean vial;
2) Added 2.826 mL of PEG400 into the tube containing the compound. Then vortexed for 5 min and sonicated for 45 min;
3) Added 53.688 mL of 1% MC in water into the tube containing the compound. Then vortexed for 4 min and sonicated for 4 min; and
4) Adjusted the pH to the physiological value by using 1N NaOH.
Several studies have shown that drug transport into the CNS may be more similar between humans and primates. […] To explore the mechanism of BACE1 compounds, the compounds were tested using this in vivo study. […] The monkey Aβ reduction study usually takes 3 weeks.
The time-course profiles of neurodegeneration biomarkers were determined following single oral administration of the selected BACE1 inhibitors to male cynomolgus monkeys. Blood samples were collected from all animals via the saphenous vein or cephalic vein at 0 (pre-dose), 0.5, 1, 3, 6, 8, 12 and 24 hr post-dose into test tubes containing potassium ethylenediaminotetraacetic acid (K2EDTA). CSF samples were collected via a pre-implanted cannula at the foramina occipital magnum site at 0 (pre-dose), 3, 6, 12 and 24 hr post-dose.
Plasma was separated from the blood by centrifugation at 4° C. and stored at −80° C. until analyzing. The biomarkers of Aβ38, Aβ40 and Aβ42 in CSF were quantified using Meso Scale Discovery (MSD) multiplex electrochemiluminescence immunoassay according to the manufacturer's instructions. The plates were first blocked with 150 μL of Diluent 35 for 1 hour at room temperature with constant shaking at 600 rpm. After washing three times with 200 μL washing buffer, 25 μL of 1× detection antibody solution, plus Aβ40 blocker, 25 μL of seven standards, zero standard and four-fold diluted samples were added to the assay plate. The plate was incubated for 2 hours at room temperature, with constant shaking at 600 rpm. Upon finishing, the plate was washed three times with washing buffer and read in a Sector Imager 6000 (MSD) immediately after addition of 150 μL of 2× Read Buffer T. Aβ concentrations were calculated with reference to the standard curves of each individual peptide and expressed as pg/mL using SoftMax Pro GXP 5.4.4.

SMILES | % of maximum Aβ40 inhibition over 24 hours [%]
CC#Cc1ccc2sc3ccc([C@]4(C)CS(=O)(=O)C(C)(C)C(N)=N4)cc3c2c1 [Example 103, (R)-5-Amino-3,6,6-trimethyl-3-(8-(prop-1-yn-1-yl)dibenzo[b,d]thiophen-2-yl)-3,6-dihydro-2H-1,4-thiazine 1,1-dioxide] | 45.9
CC#Cc1ccc2sc3cc(F)c([C@]4(C)CS(=O)(=O)C(C)(C)C(=N)N4)cc3c2c1 [Example 109, (R)-5-Amino-3-(3-fluoro-8-(prop-1-yn-1-yl)dibenzo[b,d]thiophen-2-yl)-3,6,6-trim ethyl-3,6-dihydro-2H-1,4-thiazine 1,1-dioxide] | 37.3
